Source: PubChem BioAssay (NCI)
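In this assay, cells in 96-well plates receive the compound at five concentrations for 48 hours. Endpoints are linearly interpolated between the surrounding concentrations. GI50 = concentration required for 50% inhibition of growth. Definition used: TGI = concentration required for complete inhibition of growth.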

Tests used:
Assay in all cases: growth of human tumour cells (NCI), 48 h
786-0 renal = system: 786-0 renal
A498 renal = system: A498 renal
ACHN renal = system: ACHN renal
BT-549 breast = system: BT-549 breast
CAKI-1 renal = system: CAKI-1 renal
CCRF-CEM leukemia = system: CCRF-CEM leukemia
COLO 205 colon = system: COLO 205 colon
DU-145 prostate = system: DU-145 prostate
EKVX NSCLC = system: EKVX NSCLC
HCC-2998 colon = system: HCC-2998 colon
HCT-116 colon = system: HCT-116 colon
HCT-15 colon = system: HCT-15 colon
HL-60(TB) leukemia = system: HL-60(TB) leukemia
HOP-62 NSCLC = system: HOP-62 NSCLC
HOP-92 NSCLC = system: HOP-92 NSCLC
HS 578T breast = system: HS 578T breast
HT29 colon = system: HT29 colon
IGROV1 ovarian = system: IGROV1 ovarian
K-562 leukemia = system: K-562 leukemia
KM12 colon = system: KM12 colon
LOX IMVI melanoma = system: LOX IMVI melanoma
M14 melanoma = system: M14 melanoma
MALME-3M melanoma = system: MALME-3M melanoma
MCF7 breast = system: MCF7 breast
MDA-MB-231 breast = system: MDA-MB-231 breast
MDA-MB-435 = system: MDA-MB-435
MOLT-4 leukemia = system: MOLT-4 leukemia
NCI-H226 lung = system: NCI-H226 lung
NCI-H23 lung = system: NCI-H23 lung
NCI-H460 lung = system: NCI-H460 lung
NCI-H522 lung = system: NCI-H522 lung
NCI/ADR-RES ovarian = system: NCI/ADR-RES ovarian
OVCAR-3 ovarian = system: OVCAR-3 ovarian
OVCAR-4 ovarian = system: OVCAR-4 ovarian
OVCAR-5 ovarian = system: OVCAR-5 ovarian
OVCAR-8 ovarian = system: OVCAR-8 ovarian
PC-3 prostate = system: PC-3 prostate
RPMI-8226 leukemia = system: RPMI-8226 leukemia
RXF 393 renal = system: RXF 393 renal
SF-268 CNS = system: SF-268 CNS
SF-295 CNS = system: SF-295 CNS
SF-539 CNS = system: SF-539 CNS
SK-MEL-2 melanoma = system: SK-MEL-2 melanoma
SK-MEL-28 melanoma = system: SK-MEL-28 melanoma
SK-MEL-5 melanoma = system: SK-MEL-5 melanoma
SK-OV-3 ovarian = system: SK-OV-3 ovarian
SN12C renal = system: SN12C renal
SNB-19 CNS = system: SNB-19 CNS
SNB-75 CNS = system: SNB-75 CNS
SR leukemia = system: SR leukemia
SW-620 colon = system: SW-620 colon
T-47D breast = system: T-47D breast
TK-10 renal = system: TK-10 renal
U251 CNS = system: U251 CNS
UACC-257 melanoma = system: UACC-257 melanoma
UO-31 renal = system: UO-31 renal

Question: What does the source list for `COc1cccc2c1C(=O)c1c(O)c3c(c(O)c1C2=O)CC(O)(/C(C)=N/NC(=O)CCCCC(=O)N/N=C(\C)C1(O)Cc2c(O)c4c(c(O)c2C(OC2CC(N)C(O)C(C)O2)C1)C(=O)c1c(OC)cccc1C4=O)CC3OC1CC(N)C(O)C(C)O1` (centres undefined)?
Answer: GI50 (786-0 renal): 185 nM; TGI (786-0 renal): 1940 nM; GI50 (A498 renal): 567 nM; TGI (A498 renal): 1340 nM; GI50 (ACHN renal): 188 nM; TGI (ACHN renal): 1690 nM; GI50 (BT-549 breast): 511 nM; TGI (BT-549 breast): 4350 nM; GI50 (CAKI-1 renal): 265 nM; TGI (CAKI-1 renal): 3230 nM; GI50 (CCRF-CEM leukemia): 207 nM; TGI (CCRF-CEM leukemia): 18400 nM; GI50 (COLO 205 colon): 87.7 nM; TGI (COLO 205 colon): 440 nM; GI50 (DU-145 prostate): 163 nM; TGI (DU-145 prostate): 1930 nM; GI50 (EKVX NSCLC): 418 nM; TGI (EKVX NSCLC): 21000 nM; GI50 (HCC-2998 colon): 318 nM; TGI (HCC-2998 colon): 1140 nM; GI50 (HCT-116 colon): 116 nM; GI50 (HCT-15 colon): 2890 nM; TGI (HCT-15 colon): > 50000 nM; GI50 (HL-60(TB) leukemia): 159 nM; TGI (HL-60(TB) leukemia): 2380 nM; GI50 (HOP-62 NSCLC): 218 nM; TGI (HOP-62 NSCLC): 1930 nM; GI50 (HOP-92 NSCLC): 137 nM; TGI (HOP-92 NSCLC): 2450 nM; GI50 (HS 578T breast): 263 nM; TGI (HS 578T breast): 2830 nM; GI50 (HT29 colon): 181 nM; TGI (HT29 colon): > 50000 nM; GI50 (IGROV1 ovarian): 906 nM; TGI (IGROV1 ovarian): > 21000 nM; GI50 (K-562 leukemia): 222 nM; TGI (K-562 leukemia): > 23300 nM; GI50 (KM12 colon): 361 nM; TGI (KM12 colon): 6120 nM; GI50 (LOX IMVI melanoma): 80.3 nM; GI50 (M14 melanoma): 225 nM; TGI (M14 melanoma): 1320 nM; GI50 (MALME-3M melanoma): 146 nM; TGI (MALME-3M melanoma): 973 nM; GI50 (MCF7 breast): 45.9 nM; TGI (MCF7 breast): > 50000 nM; GI50 (MDA-MB-231 breast): 749 nM; TGI (MDA-MB-231 breast): > 50000 nM; GI50 (MDA-MB-435): 324 nM; TGI (MDA-MB-435): 2010 nM; GI50 (MOLT-4 leukemia): 60.5 nM; TGI (MOLT-4 leukemia): 694 nM; GI50 (NCI-H226 lung): 159 nM; TGI (NCI-H226 lung): 1230 nM; GI50 (NCI-H23 lung): 173 nM; TGI (NCI-H23 lung): 1120 nM; GI50 (NCI-H460 lung): 45.6 nM; TGI (NCI-H460 lung): 10900 nM; GI50 (NCI-H522 lung): 108 nM; TGI (NCI-H522 lung): 811 nM; GI50 (NCI/ADR-RES ovarian): 17900 nM; TGI (NCI/ADR-RES ovarian): > 50000 nM; GI50 (OVCAR-3 ovarian): 200 nM; TGI (OVCAR-3 ovarian): 2750 nM; GI50 (OVCAR-4 ovarian): 401 nM; TGI (OVCAR-4 ovarian): 8430 nM; GI50 (OVCAR-5 ovarian): 862 nM; TGI (OVCAR-5 ovarian): > 50000 nM; GI50 (OVCAR-8 ovarian): 215 nM; TGI (OVCAR-8 ovarian): > 50000 nM; GI50 (PC-3 prostate): 597 nM; TGI (PC-3 prostate): 9180 nM; GI50 (RPMI-8226 leukemia): 139 nM; TGI (RPMI-8226 leukemia): 2630 nM; GI50 (RXF 393 renal): 209 nM; TGI (RXF 393 renal): 831 nM; GI50 (SF-268 CNS): 147 nM; TGI (SF-268 CNS): 4580 nM; GI50 (SF-295 CNS): 125 nM; TGI (SF-295 CNS): 689 nM; GI50 (SF-539 CNS): 121 nM; TGI (SF-539 CNS): 465 nM; GI50 (SK-MEL-2 melanoma): 585 nM; TGI (SK-MEL-2 melanoma): 1790 nM; GI50 (SK-MEL-28 melanoma): 473 nM; TGI (SK-MEL-28 melanoma): 1620 nM; GI50 (SK-MEL-5 melanoma): 97.4 nM; TGI (SK-MEL-5 melanoma): 584 nM; GI50 (SK-OV-3 ovarian): 227 nM; GI50 (SN12C renal): 178 nM; TGI (SN12C renal): > 50000 nM; GI50 (SNB-19 CNS): 164 nM; TGI (SNB-19 CNS): 1570 nM; GI50 (SNB-75 CNS): 118 nM; TGI (SNB-75 CNS): 867 nM; GI50 (SR leukemia): 8.27 nM; TGI (SR leukemia): 36.5 nM; GI50 (SW-620 colon): 147 nM; TGI (SW-620 colon): 33400 nM; GI50 (T-47D breast): 93.1 nM; TGI (T-47D breast): 2070 nM; GI50 (TK-10 renal): 716 nM; TGI (TK-10 renal): > 14300 nM; GI50 (U251 CNS): 147 nM; TGI (U251 CNS): > 23700 nM; GI50 (UACC-257 melanoma): 554 nM; TGI (UACC-257 melanoma): 2370 nM; GI50 (UO-31 renal): 1340 nM; TGI (UO-31 renal): > 22000 nM
